Results as given in patent publication US20130165368A1, “ANTIMICROBIAL COMPOUNDS” (priority 2010, published 2013).
Converted amounts (≈) assume the structure as drawn. Where two headings read alike, the source gives them in different places.

Legend:
Type in all cases: cell-based
[1] = tested on: Staphylococcus aureus; assay: MIC agar dilution, micro-organism 13 (6571); conditions: Staphylococcus aureus 6571, read-out: MIC
Method in brief: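 Agar dilution in Isosensitest/CCEY agar with egg yolk and lysed horse blood; compounds as aqueous emulsions (myristyl and lauryl alcohol with 1-methyl-2-pyrrolidone and Tween 20). 1 µL spots of 1/15-diluted 0.5 McFarland suspensions, 37 °C aerobic, read at 22 and 48 h; MIC (mmol/L) is lowest concentration giving <10 colonies.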

[2] = tested on: Enterococcus faecium (VRE) 12185 Clin waste; assay: MIC agar dilution, VRE strain 24
Protocol: (§1) Molar equivalent concentrations were used to allow comparison between compounds of differing molecular mass. Due to weighing difficulties, any compound in solid form was melted in a water bath prior to dilution. To make ten-times strength concentrations, which takes into account agar dilution, 0.0352 mmol of each compound was weighed into plastic universal bottles and 4 mL of sterile distilled water (SDW) was added. To produce a homogenous emulsion the universals were vortexed; once achieved the emulsions were serial diluted by adding 2 mL to 2 mL of SDW.
(§2) For every 100 mL of Isosensitest agar (IST) (CM0471; Oxoid, Basingstoke, England), 3.1 g of the IST powder was added to 100 mL SDW (as per manufacturer's instructions) and sterilised for 15 minutes at 121° C. Once sterilised, the molten agar was cooled to 50° C. in a water-bath. Subsequently 4.8 g of CCEY powder (BC2160; Bioconnections, Wetherby, England), also known as Brazier's medium, was added to 100 mL SDW for every 100 mL of agar needed. This was then sterilised for 15 minutes at 121° C. Once sterilised the molten agar was cooled to 50° C. in a water-bath and 4 mL of egg-yolk emulsion (S2073; TCS Biosciences Ltd, Buckingham, United Kingdom) and 1 mL of lysed defibrinated horse blood (HB035; TCS Biosciences Ltd, Buckingham, United Kingdom) were also added for every 100 mL needed. Horse blood lysis is achieved by dilution to half concentration with SDW; when fully lysed the mixture will turn dark red in colour.
(§3) 18 mL agar was added to each universal and then poured into sterile Petri dishes. This step creates a 1/10 dilution resulting in agar plates of the required strength. Control plates for each set of strains were created by adding 18 mL of agar to 2 mL of SDW.
(§4) Suspensions of each bacterial species were prepared with a density equal to that of a 0.5 McFarland standard using a densitometer. All suspensions were made using sterile distilled water and fresh 18-20 hour cultures. As a 0.5 McFarland standard contains 1.5×10^8 CFU/mL and the multipoint inoculators applies 1 μL spots of liquid, each bacterial suspension was diluted 1/15 (20 μL suspension to 280 μL sterile distilled water).
(§5) Bacterial suspensions were prepared from fresh 18-24 hour cultures as previously described. 1 μL of each strain was inoculated onto all 100 agar plates containing a different chemical concentration and the 2 control plates. This was done using a multipoint inoculator which inoculates 20 strains per plate. All plates were incubated for 22 hours at 37° C. in aerobic conditions.
(§6) Each plate was examined for bacterial growth after 22 and 48 hours, with each being incubated in between examinations. A positive result was recorded as growth of ≧10 colonies. A negative result was recorded as growth of <10 colonies as this is equivalent to 99.9% inhibition. The lowest concentration of chemical that inhibited growth was recorded as the MIC. The results are recorded in Table IV below, where the numbers are quoted in mmol/L.
(§7) Given the positive performance of the ethoxylates of lauryl alcohol in reducing the MIC for a number of the micro-organisms tested, further MIC testing of Laureth-1 [C12E1] through to Laureth-8 [C12E8] was conducted on each of the following: • 10 strains of vancomycin-resistant enterococci (VRE)—listed in Table V below; and • 20 strains of methicillin-resistant Staphylococcus aureus (MRSA)—listed in Table VI.
(§8) The alkanol, alkanol derivatives, agar plates, and inocula were all prepared in the same way as described above.
(§9) The plates were examined in the same manner as described above and the results are recorded in Table VII below, where the numbers are quoted in mmol/L.

[3] = tested on: Enterococcus faecium (VRE) MB 305; assay: MIC agar dilution, VRE strain 25
Protocol: as §1, §2, §3, §4, §5, §6, §7, §8, §9

[4] = tested on: Enterococcus faecium (VRE) MB 3137; assay: MIC agar dilution, VRE strain 26
Protocol: as §1, §2, §3, §4, §5, §6, §7, §8, §9

[5] = tested on: Enterococcus faecalis (VRE) MB 1969; assay: MIC agar dilution, VRE strain 27
Protocol: as §1, §2, §3, §4, §5, §6, §7, §8, §9

[6] = tested on: Enterococcus faecalis (VRE) MB 726; assay: MIC agar dilution, VRE strain 28
Protocol: as §1, §2, §3, §4, §5, §6, §7, §8, §9

[7] = tested on: MRSA BEL 97597; assay: MIC agar dilution, MRSA strain 33; conditions: Staphylococcus aureus
Protocol: as §1, §2, §3, §4, §5, §6, §7, §8, §9

[8] = tested on: MRSA EMRSA 15 19972/98; assay: MIC agar dilution, MRSA strain 39; conditions: Staphylococcus aureus
Protocol: as §1, §2, §3, §4, §5, §6, §7, §8, §9

[9] = tested on: MRSA EMRSA 15 1729/98; assay: MIC agar dilution, MRSA strain 42; conditions: Staphylococcus aureus
Protocol: as §1, §2, §3, §4, §5, §6, §7, §8, §9

[10] = tested on: MRSA EMRSA 16 00036/95; assay: MIC agar dilution, MRSA strain 46; conditions: Staphylococcus aureus
Protocol: as §1, §2, §3, §4, §5, §6, §7, §8, §9

[11] = tested on: MRSA EMRSA 16 00998/95; assay: MIC agar dilution, MRSA strain 47; conditions: Staphylococcus aureus
Protocol: as §1, §2, §3, §4, §5, §6, §7, §8, §9

[12] = tested on: MRSA EMRSA 16 18200/95; assay: MIC agar dilution, MRSA strain 48; conditions: Staphylococcus aureus
Protocol: as §1, §2, §3, §4, §5, §6, §7, §8, §9

[13] = tested on: MRSA EMRSA 16 07924/95; assay: MIC agar dilution, MRSA strain 49; conditions: Staphylococcus aureus
Protocol: as §1, §2, §3, §4, §5, §6, §7, §8, §9

[14] = Staphylococcus aureus, 22 h, 22 hrs
[15] = Staphylococcus aureus, 48 h, 48 hrs

Structure (SMILES)	MIC ([2]; 22 hrs)	MIC ([2]; 48 hrs)	MIC ([3]; 22 hrs)	MIC ([3]; 48 hrs)	MIC ([4]; 22 hrs)	MIC ([4]; 48 hrs)	MIC ([5]; 22 hrs)	MIC ([5]; 48 hrs)	MIC ([6]; 22 hrs)	MIC ([6]; 48 hrs)	MIC ([7]; 22 hrs)	MIC ([7]; 48 hrs)	MIC ([8]; 22 hrs)	MIC ([8]; 48 hrs)	MIC ([9]; 22 hrs)	MIC ([9]; 48 hrs)	MIC ([10]; 22 hrs)	MIC ([10]; 48 hrs)	MIC ([11]; 22 hrs)	MIC ([11]; 48 hrs)	other results
CCCCCCCCCCCCOCCOCCOCCOCCOCCOCCO [L6, Hexaethylene Glycol Monododecyl Ether]	880 µM (≈ 397 µg/mL)	880 µM (≈ 397 µg/mL)	220 µM (≈ 99.1 µg/mL)	220 µM (≈ 99.1 µg/mL)	880 µM (≈ 397 µg/mL)	> 880 µM	> 880 µM	> 880 µM	> 880 µM	> 880 µM	110 µM (≈ 49.6 µg/mL)	110 µM (≈ 49.6 µg/mL)	110 µM (≈ 49.6 µg/mL)	110 µM (≈ 49.6 µg/mL)	110 µM (≈ 49.6 µg/mL)	110 µM (≈ 49.6 µg/mL)	220 µM (≈ 99.1 µg/mL)	440 µM (≈ 198 µg/mL)	220 µM (≈ 99.1 µg/mL)	440 µM (≈ 198 µg/mL)	MIC [1, 14]: 110 µM (≈ 49.6 µg/mL); MIC [1, 15]: 110 µM (≈ 49.6 µg/mL); MIC ([12]; 22 hrs): 110 µM (≈ 49.6 µg/mL); MIC ([12]; 48 hrs): 220 µM (≈ 99.1 µg/mL); MIC ([13]; 22 hrs): 110 µM (≈ 49.6 µg/mL); MIC ([13]; 48 hrs): 110 µM (≈ 49.6 µg/mL)
CCCCCCCCCCCCOCCOCCOCCOCCOCCOCCOCCO [L7, Heptaethylene Glycol Monododecyl Ether]	> 880 µM	> 880 µM	220 µM (≈ 109 µg/mL)	220 µM (≈ 109 µg/mL)	> 880 µM	> 880 µM	> 880 µM	> 880 µM	> 880 µM	> 880 µM	220 µM (≈ 109 µg/mL)	220 µM (≈ 109 µg/mL)	> 440 µM	> 440 µM	440 µM (≈ 218 µg/mL)	440 µM (≈ 218 µg/mL)	440 µM (≈ 218 µg/mL)	> 440 µM	> 440 µM	> 440 µM	MIC ([1]; 22 hrs): 110 µM (≈ 54.4 µg/mL); MIC ([1]; 48 hrs): 110 µM (≈ 54.4 µg/mL); MIC ([12]; 22 hrs): 220 µM (≈ 109 µg/mL); MIC ([12]; 48 hrs): > 440 µM; MIC ([13]; 22 hrs): > 440 µM; MIC ([13]; 48 hrs): > 440 µM
CCCCCCCCCCCCOCCOCCOCCOCCOCCOCCOCCOCCO [L8, Octaethylene Glycol Monododecyl Ether]	> 880 µM	> 880 µM	> 880 µM	> 880 µM	> 880 µM	> 880 µM	> 880 µM	> 880 µM	880 µM (≈ 474 µg/mL)	> 880 µM	220 µM (≈ 119 µg/mL)	> 440 µM	> 440 µM	> 440 µM	> 440 µM	> 440 µM	> 440 µM	> 440 µM	> 440 µM	> 440 µM	MIC [1, 14]: 110 µM (≈ 59.3 µg/mL); MIC [1, 15]: 110 µM (≈ 59.3 µg/mL); MIC ([12]; 22 hrs): > 440 µM; MIC ([12]; 48 hrs): > 440 µM; MIC ([13]; 22 hrs): > 440 µM; MIC ([13]; 48 hrs): > 440 µM
